≈ marks a conversion by molar mass, not a printed value.

The MIC is the smallest concentration in the dilution series that meets the test's criterion for growth inhibition.

The test system of this experiment is Escherichia coli. In words: Antibacterial activity against Escherichia coli K-12 W3110 by microdilution method. The note with it: K-12 substr. W3110. The experiment is classed as functional. For orientation: Broth dilution looks for growth in wells or tubes with falling amounts of substance.

Take `Cc1cn([C@H]2CN(P(=O)(OC[C@@H]3CN(P(=O)(OC[C@@H]4CN(P(=O)(OC[C@@H]5CN(P(=O)(OC[C@@H]6CN(P(=O)(OC[C@@H]7CN(P(=O)(OC[C@@H]8CN(P(=O)(OC[C@@H]9CN(P(=O)(OC[C@@H]%10CNC[C@H](n%11cnc%12c(=O)[nH]c(N)nc%12%11)O%10)N(C)C)C[C@H](n%10cc(C)c(=O)[nH]c%10=O)O9)N(C)C)C[C@H](n9cnc%10c(=O)[nH]c(N)nc%109)O8)N(C)C)C[C@H](n8cnc9c(N)ncnc98)O7)N(C)C)C[C@H](n7cc(C)c(=O)[nH]c7=O)O6)N(C)C)C[C@H](n6cnc7c(N)ncnc76)O5)N(C)C)C[C@H](n5cnc6c(=O)[nH]c(N)nc65)O4)N(C)C)C[C@H](n4ccc(N)nc4=O)O3)N(C)C)C[C@@H](COP(=O)(N(C)C)N3C[C@@H](COP(=O)(N(C)C)N4C[C@@H](COP(=O)(N(C)C)N5CCN(C(=O)CCNC(=O)CCCCCNC(=O)[C@@H](Cc6ccccc6)NC(=O)[C@@H](Cc6ccccc6)NC(=O)[C@@H](CCCNC(=N)N)NC(=O)[C@@H](Cc6ccccc6)NC(=O)[C@@H](Cc6ccccc6)NC(=O)[C@@H](CCCNC(=N)N)NC(=O)[C@@H](Cc6ccccc6)NC(=O)[C@H](Cc6ccccc6)NC(=O)[C@H](N)CCCNC(=N)N)CC5)O[C@@H](n5ccc(N)nc5=O)C4)O[C@@H](n4cc(C)c(=O)[nH]c4=O)C3)O2)c(=O)[nH]c1=O` (stereo partly drawn): 5 µM (≈ 26.6 µg/mL) was the least that counted as inhibitory (MIC).

`Cc1cn([C@H]2CN(P(=O)(OC[C@@H]3CN(P(=O)(OC[C@@H]4CN(P(=O)(OC[C@@H]5CN(P(=O)(OC[C@@H]6CN(P(=O)(OC[C@@H]7CN(P(=O)(OC[C@@H]8CN(P(=O)(OC[C@@H]9CN(P(=O)(OC[C@@H]%10CNC[C@H](n%11cnc%12c(=O)[nH]c(N)nc%12%11)O%10)N(C)C)C[C@H](n%10cc(C)c(=O)[nH]c%10=O)O9)N(C)C)C[C@H](n9cnc%10c(=O)[nH]c(N)nc%109)O8)N(C)C)C[C@H](n8cnc9c(N)ncnc98)O7)N(C)C)C[C@H](n7cc(C)c(=O)[nH]c7=O)O6)N(C)C)C[C@H](n6cnc7c(N)ncnc76)O5)N(C)C)C[C@H](n5cnc6c(=O)[nH]c(N)nc65)O4)N(C)C)C[C@H](n4ccc(N)nc4=O)O3)N(C)C)C[C@@H](COP(=O)(N(C)C)N3C[C@@H](COP(=O)(N(C)C)N4C[C@@H](COP(=O)(N(C)C)N5CCN(C(=O)CCNC(=O)CCCCCNC(=O)[C@H](CCCNC(=N)N)NC(=O)CCNC(=O)CCNC(=O)[C@H](CCCNC(=N)N)NC(=O)CCNC(=O)CCNC(=O)[C@H](CCCNC(=N)N)NC(=O)CCNC(=O)CCNC(=O)[C@@H](N)CCCNC(=N)N)CC5)O[C@@H](n5ccc(N)nc5=O)C4)O[C@@H](n4cc(C)c(=O)[nH]c4=O)C3)O2)c(=O)[nH]c1=O` (stereo partly drawn): the minimum inhibitory concentration (MIC) was over 80 µM.

`Cc1cn([C@H]2CN(P(=O)(OC[C@@H]3CN(P(=O)(OC[C@@H]4CN(P(=O)(OC[C@@H]5CN(P(=O)(OC[C@@H]6CN(P(=O)(OC[C@@H]7CN(P(=O)(OC[C@@H]8CN(P(=O)(OC[C@@H]9CN(P(=O)(OC[C@@H]%10CNC[C@H](n%11cnc%12c(=O)[nH]c(N)nc%12%11)O%10)N(C)C)C[C@H](n%10cc(C)c(=O)[nH]c%10=O)O9)N(C)C)C[C@H](n9cnc%10c(=O)[nH]c(N)nc%109)O8)N(C)C)C[C@H](n8cnc9c(N)ncnc98)O7)N(C)C)C[C@H](n7cc(C)c(=O)[nH]c7=O)O6)N(C)C)C[C@H](n6cnc7c(N)ncnc76)O5)N(C)C)C[C@H](n5cnc6c(=O)[nH]c(N)nc65)O4)N(C)C)C[C@H](n4ccc(N)nc4=O)O3)N(C)C)C[C@@H](COP(=O)(N(C)C)N3C[C@@H](COP(=O)(N(C)C)N4C[C@@H](COP(=O)(N(C)C)N5CCN(C(=O)CCNC(=O)CCCCCNC(=O)[C@H](CCCNC(=N)N)NC(=O)[C@@H](NC(=O)[C@@H](NC(=O)[C@H](CCCNC(=N)N)NC(=O)[C@@H](NC(=O)[C@@H](NC(=O)[C@H](CCCNC(=N)N)NC(=O)[C@@H](NC(=O)[C@@H](NC(=O)[C@@H](N)CCCNC(=N)N)C(C)C)C(C)C)C(C)C)C(C)C)C(C)C)C(C)C)CC5)O[C@@H](n5ccc(N)nc5=O)C4)O[C@@H](n4cc(C)c(=O)[nH]c4=O)C3)O2)c(=O)[nH]c1=O` (stereo partly drawn) gave an MIC of over 80 µM.

The compound `Cc1cn([C@H]2CN(P(=O)(OC[C@@H]3CN(P(=O)(OC[C@@H]4CN(P(=O)(OC[C@@H]5CN(P(=O)(OC[C@@H]6CN(P(=O)(OC[C@@H]7CN(P(=O)(OC[C@@H]8CN(P(=O)(OC[C@@H]9CN(P(=O)(OC[C@@H]%10CNC[C@H](n%11cnc%12c(=O)[nH]c(N)nc%12%11)O%10)N(C)C)C[C@H](n%10cc(C)c(=O)[nH]c%10=O)O9)N(C)C)C[C@H](n9cnc%10c(=O)[nH]c(N)nc%109)O8)N(C)C)C[C@H](n8cnc9c(N)ncnc98)O7)N(C)C)C[C@H](n7cc(C)c(=O)[nH]c7=O)O6)N(C)C)C[C@H](n6cnc7c(N)ncnc76)O5)N(C)C)C[C@H](n5cnc6c(=O)[nH]c(N)nc65)O4)N(C)C)C[C@H](n4ccc(N)nc4=O)O3)N(C)C)C[C@@H](COP(=O)(N(C)C)N3C[C@@H](COP(=O)(N(C)C)N4C[C@@H](COP(=O)(N(C)C)N5CCN(C(=O)CCNC(=O)CCCCCNC(=O)[C@H](CCCCN)NC(=O)CCCCCNC(=O)[C@H](CCCCN)NC(=O)CCCCCNC(=O)[C@H](CCCCN)NC(=O)CCCCCNC(=O)[C@H](CCCCN)NC(=O)CCCCCNC(=O)[C@H](CCCCN)NC(=O)CCCCCNC(=O)[C@@H](N)CCCCN)CC5)O[C@@H](n5ccc(N)nc5=O)C4)O[C@@H](n4cc(C)c(=O)[nH]c4=O)C3)O2)c(=O)[nH]c1=O` (stereo partly drawn) yielded an MIC of over 80 µM.

As to `Cc1cn([C@H]2CN(P(=O)(OC[C@@H]3CN(P(=O)(OC[C@@H]4CN(P(=O)(OC[C@@H]5CN(P(=O)(OC[C@@H]6CN(P(=O)(OC[C@@H]7CN(P(=O)(OC[C@@H]8CN(P(=O)(OC[C@@H]9CN(P(=O)(OC[C@@H]%10CNC[C@H](n%11cnc%12c(=O)[nH]c(N)nc%12%11)O%10)N(C)C)C[C@H](n%10cc(C)c(=O)[nH]c%10=O)O9)N(C)C)C[C@H](n9cnc%10c(=O)[nH]c(N)nc%109)O8)N(C)C)C[C@H](n8cnc9c(N)ncnc98)O7)N(C)C)C[C@H](n7cc(C)c(=O)[nH]c7=O)O6)N(C)C)C[C@H](n6cnc7c(N)ncnc76)O5)N(C)C)C[C@H](n5cnc6c(=O)[nH]c(N)nc65)O4)N(C)C)C[C@H](n4ccc(N)nc4=O)O3)N(C)C)C[C@@H](COP(=O)(N(C)C)N3C[C@@H](COP(=O)(N(C)C)N4C[C@@H](COP(=O)(N(C)C)N5CCN(C(=O)CCNC(=O)CCCCCNC(=O)[C@@H](N)CCCNC(=O)[C@H](Cc6ccccc6)NC(=O)[C@H](Cc6ccccc6)NC(=O)[C@@H](N)CCCNC(=O)[C@H](Cc6ccccc6)NC(=O)[C@H](Cc6ccccc6)NC(=O)[C@@H](N)CCCNC(=O)[C@H](Cc6ccccc6)NC(=O)[C@H](Cc6ccccc6)NC(=O)[C@@H](N)CCCN)CC5)O[C@@H](n5ccc(N)nc5=O)C4)O[C@@H](n4cc(C)c(=O)[nH]c4=O)C3)O2)c(=O)[nH]c1=O` (stereo partly drawn), the MIC was over 80 µM.

Compound `Cc1cn([C@H]2CN(P(=O)(OC[C@@H]3CN(P(=O)(OC[C@@H]4CN(P(=O)(OC[C@@H]5CN(P(=O)(OC[C@@H]6CN(P(=O)(OC[C@@H]7CN(P(=O)(OC[C@@H]8CN(P(=O)(OC[C@@H]9CN(P(=O)(OC[C@@H]%10CNC[C@H](n%11cnc%12c(=O)[nH]c(N)nc%12%11)O%10)N(C)C)C[C@H](n%10cc(C)c(=O)[nH]c%10=O)O9)N(C)C)C[C@H](n9cnc%10c(=O)[nH]c(N)nc%109)O8)N(C)C)C[C@H](n8cnc9c(N)ncnc98)O7)N(C)C)C[C@H](n7cc(C)c(=O)[nH]c7=O)O6)N(C)C)C[C@H](n6cnc7c(N)ncnc76)O5)N(C)C)C[C@H](n5cnc6c(=O)[nH]c(N)nc65)O4)N(C)C)C[C@H](n4ccc(N)nc4=O)O3)N(C)C)C[C@@H](COP(=O)(N(C)C)N3C[C@@H](COP(=O)(N(C)C)N4C[C@@H](COP(=O)(N(C)C)N5CCN(C(=O)CCNC(=O)CCCCCNC(=O)[C@H](Cc6ccccc6)NC(=O)[C@H](Cc6ccccc6)NC(=O)[C@@H](N)CCCNC(=N)N)CC5)O[C@@H](n5ccc(N)nc5=O)C4)O[C@@H](n4cc(C)c(=O)[nH]c4=O)C3)O2)c(=O)[nH]c1=O` (stereo partly drawn) registered an MIC of over 80 µM.

Consider `Cc1cn([C@H]2CN(P(=O)(OC[C@@H]3CN(P(=O)(OC[C@@H]4CN(P(=O)(OC[C@@H]5CN(P(=O)(OC[C@@H]6CN(P(=O)(OC[C@@H]7CN(P(=O)(OC[C@@H]8CN(P(=O)(OC[C@@H]9CN(P(=O)(OC[C@@H]%10CNC[C@H](n%11cnc%12c(=O)[nH]c(N)nc%12%11)O%10)N(C)C)C[C@H](n%10cc(C)c(=O)[nH]c%10=O)O9)N(C)C)C[C@H](n9cnc%10c(=O)[nH]c(N)nc%109)O8)N(C)C)C[C@H](n8cnc9c(N)ncnc98)O7)N(C)C)C[C@H](n7cc(C)c(=O)[nH]c7=O)O6)N(C)C)C[C@H](n6cnc7c(N)ncnc76)O5)N(C)C)C[C@H](n5cnc6c(=O)[nH]c(N)nc65)O4)N(C)C)C[C@H](n4ccc(N)nc4=O)O3)N(C)C)C[C@@H](COP(=O)(N(C)C)N3C[C@@H](COP(=O)(N(C)C)N4C[C@@H](COP(=O)(N(C)C)N5CCN(C(=O)CCNC(=O)CCCCCNC(=O)CCCCCNC(=O)[C@H](CCCNC(=N)N)NC(=O)CCCCCNC(=O)CCCCCNC(=O)[C@H](CCCNC(=N)N)NC(=O)CCCCCNC(=O)CCCCCNC(=O)[C@@H](N)CCCNC(=N)N)CC5)O[C@@H](n5ccc(N)nc5=O)C4)O[C@@H](n4cc(C)c(=O)[nH]c4=O)C3)O2)c(=O)[nH]c1=O` (stereo partly drawn), for which the MIC was found to be 20 µM (≈ 100 µg/mL).

As for `Cc1cn([C@H]2CN(P(=O)(OC[C@@H]3CN(P(=O)(OC[C@@H]4CN(P(=O)(OC[C@@H]5CN(P(=O)(OC[C@@H]6CN(P(=O)(OC[C@@H]7CN(P(=O)(OC[C@@H]8CN(P(=O)(OC[C@@H]9CN(P(=O)(OC[C@@H]%10CNC[C@H](n%11cnc%12c(=O)[nH]c(N)nc%12%11)O%10)N(C)C)C[C@H](n%10cc(C)c(=O)[nH]c%10=O)O9)N(C)C)C[C@H](n9cnc%10c(=O)[nH]c(N)nc%109)O8)N(C)C)C[C@H](n8cnc9c(N)ncnc98)O7)N(C)C)C[C@H](n7cc(C)c(=O)[nH]c7=O)O6)N(C)C)C[C@H](n6cnc7c(N)ncnc76)O5)N(C)C)C[C@H](n5cnc6c(=O)[nH]c(N)nc65)O4)N(C)C)C[C@H](n4ccc(N)nc4=O)O3)N(C)C)C[C@@H](COP(=O)(N(C)C)N3C[C@@H](COP(=O)(N(C)C)N4C[C@@H](COP(=O)(N(C)C)N5CCN(C(=O)CCNC(=O)CCCCCNC(=O)[C@H](CCCNC(=N)N)NC(=O)CCCCCNC(=O)[C@@H](N)CCCNC(=N)N)CC5)O[C@@H](n5ccc(N)nc5=O)C4)O[C@@H](n4cc(C)c(=O)[nH]c4=O)C3)O2)c(=O)[nH]c1=O` (stereo partly drawn), the MIC was over 80 µM.
